Converted amounts (≈) assume the structure as drawn.
Assays:
Aeromonas caviae [1] = test: Antibacterial activity against Aeromonas caviae assessed as percent resistant isolates by broth microdilution method; format: functional
Aeromonas sobria [2] = test: Antibacterial activity against Aeromonas sobria assessed as percent resistant isolates by broth microdilution method; format: functional
Campylobacter jejuni [3] = test: Antibacterial activity against Campylobacter jejuni assessed as percent resistant isolates by broth microdilution method; format: functional; conditions: pooled result: one value given for 2 cell lines, strains, targets or settings
Shigella dysenteriae [4] = test: Antibacterial activity against Shigella dysenteriae by broth microdilution method; format: functional
Shigella sonnei [5] = test: Antibacterial activity against Shigella sonnei assessed as percent resistant isolates by broth microdilution method; format: functional; conditions: pooled result: one value given for 4 cell lines, strains, targets or settings
Shigella boydii [6] = test: Antibacterial activity against Shigella boydii assessed as percent susceptible isolates by broth microdilution method; format: functional; conditions: pooled result: one value given for 3 cell lines, strains, targets or settings
Aeromonas hydrophila [7] = test: Antibacterial activity against Aeromonas hydrophila assessed as percent susceptible isolates by broth microdilution method; format: functional
Vibrio cholerae = test: Antibacterial activity against Vibrio cholerae by broth microdilution method; format: functional
Salmonella typhimurium [8] = test: Antibacterial activity against Salmonella enterica serovar Typhimurium by broth microdilution method; format: functional, Salmonella enterica subsp. enterica serovar Typhimurium
Plesiomonas shigelloides [9] = test: Antibacterial activity against Plesiomonas shigelloides by broth microdilution method; format: functional
Plesiomonas shigelloides [10] = test: Antibacterial activity against Plesiomonas shigelloides assessed as percent susceptible isolates by broth microdilution method; format: functional
Aeromonas sobria [11] = test: Antibacterial activity against Aeromonas sobria by broth microdilution method; format: functional
Shigella flexneri = test: Antibacterial activity against Shigella flexneri by broth microdilution method; format: functional
[12] = system: Yersinia pseudotuberculosis; test: Antibacterial activity against Yersinia pseudotuberculosis assessed as percent susceptible isolates by broth microdilution method; format: functional
Aeromonas caviae [13] = test: Antibacterial activity against Aeromonas caviae by broth microdilution method; format: functional
Vibrio vulnificus = test: Antibacterial activity against Vibrio vulnificus by broth microdilution method; format: functional
Vibrio alginolyticus = test: Antibacterial activity against Vibrio alginolyticus by broth microdilution method; format: functional
Salmonella enteritidis [14] = test: Antibacterial activity against Salmonella enterica serovar Enteritidis by broth microdilution method; format: functional, Salmonella enterica subsp. enterica serovar Enteritidis
Aeromonas hydrophila [15] = test: Antibacterial activity against Aeromonas hydrophila assessed as percent resistant isolates by broth microdilution method; format: functional
Plesiomonas shigelloides [16] = test: Antibacterial activity against Plesiomonas shigelloides assessed as percent resistant isolates by broth microdilution method; format: functional
Campylobacter coli = test: Antibacterial activity against Campylobacter coli by broth microdilution method; format: functional
Salmonella paratyphi [17] = test: Antibacterial activity against Salmonella enterica serovar Paratyphi assessed as percent susceptible isolates by broth microdilution method; format: functional, Salmonella enterica subsp. enterica serovar Paratyphi A
Campylobacter jejuni [18] = test: Antibacterial activity against Campylobacter jejuni by broth microdilution method; format: functional
Aeromonas veronii [19] = test: Antibacterial activity against Aeromonas veronii assessed as percent resistant isolates by broth microdilution method; format: functional
Vibrio sp. = test: Antibacterial activity against Vibrio sp. by broth microdilution method; format: functional
Aeromonas veronii [20] = test: Antibacterial activity against Aeromonas veronii by broth microdilution method; format: functional
Vibrio fluvialis = test: Antibacterial activity against Vibrio fluvialis by broth microdilution method; format: functional
Campylobacter jejuni [21] = test: Antibacterial activity against Campylobacter jejuni assessed as percent susceptible isolates by broth microdilution method; format: functional; conditions: pooled result: one value given for 2 cell lines, strains, targets or settings
Salmonella enteritidis [22] = test: Antibacterial activity against Salmonella enterica serovar Enteritidis assessed as percent susceptible isolates by broth microdilution method; format: functional, Salmonella enterica subsp. enterica serovar Enteritidis; conditions: pooled result: one value given for 5 cell lines, strains, targets or settings
Aeromonas sobria [23] = test: Antibacterial activity against Aeromonas sobria assessed as percent susceptible isolates by broth microdilution method; format: functional
Escherichia coli [24] = test: Antibacterial activity against Escherichia coli assessed as percent susceptible isolates by broth microdilution method; format: functional
[25] = system: Yersinia pseudotuberculosis; test: Antibacterial activity against Yersinia pseudotuberculosis by broth microdilution method; format: functional
Shigella boydii [26] = test: Antibacterial activity against Shigella boydii by broth microdilution method; format: functional
Shigella dysenteriae [27] = test: Antibacterial activity against Shigella dysenteriae assessed as percent susceptible isolates by broth microdilution method; format: functional
Vibrio parahaemolyticus = test: Antibacterial activity against Vibrio parahaemolyticus by broth microdilution method; format: functional
Aeromonas hydrophila [28] = test: Antibacterial activity against Aeromonas hydrophila by broth microdilution method; format: functional
Salmonella paratyphi [29] = test: Antibacterial activity against Salmonella enterica serovar Paratyphi by broth microdilution method; format: functional, Salmonella enterica subsp. enterica serovar Paratyphi A
Shigella sonnei [30] = test: Antibacterial activity against Shigella sonnei by broth microdilution method; format: functional
Aeromonas veronii [31] = test: Antibacterial activity against Aeromonas veronii assessed as percent susceptible isolates by broth microdilution method; format: functional
Salmonella typhi = test: Antibacterial activity against Salmonella enterica serovar Typhi assessed as percent susceptible isolates by broth microdilution method; format: functional, Salmonella enterica subsp. enterica serovar Typhi
Aeromonas caviae [32] = test: Antibacterial activity against Aeromonas caviae assessed as percent susceptible isolates by broth microdilution method; format: functional
Yersinia enterocolitica [33] = test: Antibacterial activity against Yersinia enterocolitica assessed as percent resistant isolates by broth microdilution method; format: functional
Yersinia enterocolitica [34] = test: Antibacterial activity against Yersinia enterocolitica assessed as percent susceptible isolates by broth microdilution method; format: functional
Salmonella typhimurium [35] = test: Antibacterial activity against Salmonella enterica serovar Typhimurium assessed as percent resistant isolates by broth microdilution method; format: functional, Salmonella enterica subsp. enterica serovar Typhimurium; conditions: pooled result: one value given for 8 cell lines, strains, targets or settings
Escherichia coli [36] = test: Antibacterial activity against Escherichia coli assessed as percent resistant isolates by broth microdilution method; format: functional
Escherichia coli [37] = test: Antibacterial activity against Escherichia coli by broth microdilution method; format: functional
Yersinia enterocolitica [38] = test: Antibacterial activity against Yersinia enterocolitica by broth microdilution method; format: functional

In the case of `O=C(O)c1cn(C2CC2)c2cc(N3CCNCC3)c(F)cc2c1=O` [CIPROFLOXACIN], the Activity (Aeromonas caviae [1]) is reported as 2%, the Activity (Aeromonas sobria [2]) is reported as 2% and the Activity (Campylobacter jejuni [3]) is reported as 16.5%. The MIC50 (Shigella dysenteriae [4]) was 0.008 µg/mL (≈ 0.0241 µM), the MIC90 (Shigella dysenteriae [4]) was 0.016 µg/mL (≈ 0.0483 µM) and the Activity (Shigella sonnei [5]) was 0%. For the same molecule, the Activity (Shigella boydii [6]) was 100%, the Activity (Aeromonas hydrophila [7]) was 98% and the MIC50 (Vibrio cholerae) was 0.016 µg/mL (≈ 0.0483 µM). For the same molecule, the MIC90 (Vibrio cholerae) was 0.06 µg/mL (≈ 0.181 µM), the MIC50 (Salmonella typhimurium [8]) was 0.008 µg/mL (≈ 0.0241 µM) and the MIC90 (Salmonella typhimurium [8]) was 0.12 µg/mL (≈ 0.362 µM). The MIC50 (Plesiomonas shigelloides [9]) was 0.004 µg/mL (≈ 0.0121 µM), the Activity (Plesiomonas shigelloides [10]) was 100% and the MIC50 (Aeromonas sobria [11]) was 0.004 µg/mL (≈ 0.0121 µM). The MIC90 (Aeromonas sobria [11]) was 0.06 µg/mL (≈ 0.181 µM), the MIC50 (Shigella flexneri) was 0.008 µg/mL (≈ 0.0241 µM) and the MIC90 (Shigella flexneri) was 0.016 µg/mL (≈ 0.0483 µM). It also gave an Activity [12] of 100%, an MIC50 (Aeromonas caviae [13]) of 0.004 µg/mL (≈ 0.0121 µM) and an MIC90 (Aeromonas caviae [13]) of 0.06 µg/mL (≈ 0.181 µM). It also gave an MIC50 (Vibrio vulnificus) of 0.016 µg/mL (≈ 0.0483 µM), an MIC90 (Vibrio vulnificus) of 0.06 µg/mL (≈ 0.181 µM) and an MIC50 (Vibrio alginolyticus) of 0.016 µg/mL (≈ 0.0483 µM). For the same molecule, the MIC90 (Vibrio alginolyticus) was 0.06 µg/mL (≈ 0.181 µM), the MIC50 (Salmonella enteritidis [14]) was 0.008 µg/mL (≈ 0.0241 µM) and the MIC90 (Salmonella enteritidis [14]) was 0.12 µg/mL (≈ 0.362 µM). It also gave an Activity (Aeromonas hydrophila [15]) of 2%, an Activity (Plesiomonas shigelloides [16]) of 0% and an MIC50 (Campylobacter coli) of 0.06 µg/mL (≈ 0.181 µM). The MIC90 (Campylobacter coli) was > 2 µg/mL, the Activity (Salmonella paratyphi [17]) was 100% and the MIC50 (Campylobacter jejuni [18]) was 0.06 µg/mL (≈ 0.181 µM). For the same molecule, the MIC90 (Campylobacter jejuni [18]) was > 2 µg/mL, the Activity (Aeromonas veronii [19]) was 2% and the MIC50 (Vibrio sp.) was 0.016 µg/mL (≈ 0.0483 µM). For the same molecule, the MIC90 (Vibrio sp.) was 0.06 µg/mL (≈ 0.181 µM), the MIC50 (Aeromonas veronii [20]) was 0.004 µg/mL (≈ 0.0121 µM) and the MIC90 (Aeromonas veronii [20]) was 0.06 µg/mL (≈ 0.181 µM). The MIC50 (Vibrio fluvialis) was 0.016 µg/mL (≈ 0.0483 µM), the MIC90 (Vibrio fluvialis) was 0.06 µg/mL (≈ 0.181 µM) and the Activity (Campylobacter jejuni [21]) was 82.6%. For the same molecule, the Activity (Salmonella enteritidis [22]) was 100%, the Activity (Aeromonas sobria [23]) was 98% and the Activity (Escherichia coli [24]) was 97%. It also gave an MIC50 [25] of 0.016 µg/mL (≈ 0.0483 µM), an MIC90 [25] of 0.03 µg/mL (≈ 0.0905 µM) and an MIC50 (Shigella boydii [26]) of 0.008 µg/mL (≈ 0.0241 µM). For the same molecule, the MIC90 (Shigella boydii [26]) was 0.016 µg/mL (≈ 0.0483 µM), the Activity (Shigella dysenteriae [27]) was 100% and the MIC50 (Vibrio parahaemolyticus) was 0.016 µg/mL (≈ 0.0483 µM). The MIC90 (Vibrio parahaemolyticus) was 0.06 µg/mL (≈ 0.181 µM), the MIC50 (Aeromonas hydrophila [28]) was 0.004 µg/mL (≈ 0.0121 µM) and the MIC90 (Aeromonas hydrophila [28]) was 0.06 µg/mL (≈ 0.181 µM). For the same molecule, the MIC (Salmonella paratyphi [29]) was 0.004 µg/mL (≈ 0.0121 µM), the MIC50 (Shigella sonnei [30]) was 0.008 µg/mL (≈ 0.0241 µM) and the MIC90 (Shigella sonnei [30]) was 0.016 µg/mL (≈ 0.0483 µM). It also gave an Activity (Aeromonas veronii [31]) of 98%, an Activity (Salmonella typhi) of 100% and an Activity (Aeromonas caviae [32]) of 98%. For the same molecule, the Activity (Yersinia enterocolitica [33]) was 0%, the Activity (Yersinia enterocolitica [34]) was 100% and the Activity (Salmonella typhimurium [35]) was 0%. The Activity (Escherichia coli [36]) was 3%, the MIC50 (Escherichia coli [37]) was 0.008 µg/mL (≈ 0.0241 µM) and the MIC90 (Escherichia coli [37]) was 0.016 µg/mL (≈ 0.0483 µM). For the same molecule, the MIC50 (Yersinia enterocolitica [38]) was 0.016 µg/mL (≈ 0.0483 µM) and the MIC90 (Yersinia enterocolitica [38]) was 0.03 µg/mL (≈ 0.0905 µM).
